From the supplement of paper PMC10307832 come the findings set out here.

Experiment in all cases: relative viability (nuclei count vs DMSO), 5 days (fraction); higher = more cells survive
Compound in the experiment “Etoposide + AZD7762”: COc1cc([C@@H]2c3cc4c(cc3[C@@H](O[C@@H]3O[C@@H]5CO[C@@H](C)O[C@H]5[C@H](O)[C@H]3O)[C@H]3COC(=O)[C@H]23)OCO4)cc(OC)c1O [Etoposide] + NC(=O)Nc1cc(-c2cccc(F)c2)sc1C(=O)N[C@H]1CCCNC1 [AZD7762] (partner 0.2 µM)
Summed up: (§1)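 Medians of duplicate plates are given as relative viability. That measure is the nuclei count in treated wells divided by the count in vehicle wells. Counts were taken on 4× images of lung cancer cell lines in 1536-well plates, 5 days after pin-tool dosing the day after seeding with one drug alone or a fixed anchor-drug dose plus five library-drug doses (not always all listed) in √10 steps.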

Compound in the experiment “Bleomycin + Lapatinib”: CC1=C(N=C(N=C1N)[C@H](CC(=O)N)NC[C@@H](C(=O)N)N)C(=O)N[C@@H]([C@H](C2=CN=CN2)OC3C(C(C(C(O3)CO)O)O)OC4C(C(C(C(O4)CO)O)OC(=O)N)O)C(=O)N[C@H](C)[C@H]([C@H](C)C(=O)N[C@@H]([C@@H](C)O)C(=O)NCCC5=NC(=CS5)C6=NC(=CS6)C(=O)NCCC[S+](C)C)O [Bleomycin] + CS(=O)(=O)CCNCc1ccc(-c2ccc3ncnc(Nc4ccc(OCc5cccc(F)c5)c(Cl)c4)c3c2)o1 [Lapatinib] (partner 2 µM)
As to conditions: main component drawn. In short, it runs like this:
as §1

Compound in the experiment “Bleomycin + Foretinib”: CC1=C(N=C(N=C1N)[C@H](CC(=O)N)NC[C@@H](C(=O)N)N)C(=O)N[C@@H]([C@H](C2=CN=CN2)OC3C(C(C(C(O3)CO)O)O)OC4C(C(C(C(O4)CO)O)OC(=O)N)O)C(=O)N[C@H](C)[C@H]([C@H](C)C(=O)N[C@@H]([C@@H](C)O)C(=O)NCCC5=NC(=CS5)C6=NC(=CS6)C(=O)NCCC[S+](C)C)O [Bleomycin] + COc1cc2c(Oc3ccc(NC(=O)C4(C(=O)Nc5ccc(F)cc5)CC4)cc3F)ccnc2cc1OCCCN1CCOCC1 [Foretinib] (partner 0.25 µM)
The note with it: main component drawn. Summed up: as §1

Compound in the experiment “Etoposide + OSI-027”: COc1cc([C@@H]2c3cc4c(cc3[C@@H](O[C@@H]3O[C@@H]5CO[C@@H](C)O[C@H]5[C@H](O)[C@H]3O)[C@H]3COC(=O)[C@H]23)OCO4)cc(OC)c1O [Etoposide] + COc1cccc2cc(-c3nc([C@H]4CC[C@H](C(=O)O)CC4)n4ncnc(N)c34)[nH]c12 [OSI-027] (partner 0.5 µM)
Summed up: as §1

As to PC-3 [JPC-3], the relative viability with Etoposide + AZD7762 (first compound 0.01 µM) amounted to 0.782; with Etoposide + AZD7762 (first compound 0.03162 µM) it was 0.92; with Etoposide + AZD7762 (first compound 0.1 µM), 0.604; with Etoposide + AZD7762 (first compound 0.3162 µM), 0.785; with Etoposide + AZD7762 (first compound 1 µM), 0.73; in the experiment with Bleomycin + Lapatinib (first compound 0.01 µM) it was 0.455. For the same cell line, the relative viability was 0.422 with Bleomycin + Lapatinib (first compound 0.03162 µM); 0.473 in the experiment with Bleomycin + Lapatinib (first compound 0.1 µM); 0.364 with Bleomycin + Lapatinib (first compound 0.3162 µM); 0.314 with Bleomycin + Lapatinib (first compound 1 µM); 0.929 in the experiment with Bleomycin + Foretinib (first compound 0.01 µM); 1.24 with Bleomycin + Foretinib (first compound 0.03162 µM). In addition, the relative viability in the experiment with Bleomycin + Foretinib (first compound 0.1 µM) was 0.95; with Bleomycin + Foretinib (first compound 0.3162 µM), 0.75; with Bleomycin + Foretinib (first compound 1 µM) it was 0.541; with Etoposide + OSI-027 (first compound 0.01 µM), 0.657; with Etoposide + OSI-027 (first compound 0.03162 µM), 0.731; with Etoposide + OSI-027 (first compound 0.1 µM) it was 0.636. For the same cell line, the results for the relative viability with Etoposide + OSI-027 (first compound 0.3162 µM) and with Etoposide + OSI-027 (first compound 1 µM) were 0.736 and 0.689, respectively.
For PC-14, the relative viability stood at 0.338 with Etoposide + AZD7762 (first compound 0.01 µM); 0.396 with Etoposide + AZD7762 (first compound 0.03162 µM); 0.317 with Etoposide + AZD7762 (first compound 0.1 µM); 0.307 in the experiment with Etoposide + AZD7762 (first compound 0.3162 µM); 0.17 in the experiment with Etoposide + AZD7762 (first compound 1 µM); 0.302 in the experiment with Bleomycin + Lapatinib (first compound 0.01 µM). Further, the relative viability turned out to be 0.244 with Bleomycin + Lapatinib (first compound 0.03162 µM); 0.222 in the experiment with Bleomycin + Lapatinib (first compound 0.1 µM); 0.096 in the experiment with Bleomycin + Lapatinib (first compound 0.3162 µM); 0.0848 with Bleomycin + Lapatinib (first compound 1 µM); 0.773 with Bleomycin + Foretinib (first compound 0.01 µM); 0.566 with Bleomycin + Foretinib (first compound 0.03162 µM). Moreover, the relative viability in the experiment with Bleomycin + Foretinib (first compound 0.1 µM) is 0.447; in the experiment with Bleomycin + Foretinib (first compound 0.3162 µM), 0.137; in the experiment with Bleomycin + Foretinib (first compound 1 µM), 0.0938; with Etoposide + OSI-027 (first compound 0.01 µM) it was 0.815; with Etoposide + OSI-027 (first compound 0.03162 µM), 0.945; with Etoposide + OSI-027 (first compound 0.1 µM), 0.58. In addition, the results for the relative viability with Etoposide + OSI-027 (first compound 0.3162 µM) and in the experiment with Etoposide + OSI-027 (first compound 1 µM) were 0.587 and 0.275, respectively.
As to RERF-LC-KJ, the relative viability in the experiment with Etoposide + AZD7762 (first compound 0.01 µM) came to 0.935; with Etoposide + AZD7762 (first compound 0.03162 µM), 1.1; in the experiment with Etoposide + AZD7762 (first compound 0.1 µM), 0.583; with Etoposide + AZD7762 (first compound 0.3162 µM) it was 0.861; with Etoposide + AZD7762 (first compound 1 µM) it was 0.967; with Bleomycin + Lapatinib (first compound 0.01 µM) it was 0.72. Moreover, the relative viability with Bleomycin + Lapatinib (first compound 0.03162 µM) was determined as 0.702; in the experiment with Bleomycin + Lapatinib (first compound 0.1 µM), 0.59; in the experiment with Bleomycin + Lapatinib (first compound 0.3162 µM) it was 0.354; with Bleomycin + Lapatinib (first compound 1 µM) it was 0.254; in the experiment with Bleomycin + Foretinib (first compound 0.01 µM), 0.735; with Bleomycin + Foretinib (first compound 0.03162 µM), 0.693. The relative viability with Bleomycin + Foretinib (first compound 0.1 µM) was determined as 0.633; with Bleomycin + Foretinib (first compound 0.3162 µM), 0.377; with Bleomycin + Foretinib (first compound 1 µM) it was 0.307; in the experiment with Etoposide + OSI-027 (first compound 0.01 µM), 0.529; with Etoposide + OSI-027 (first compound 0.03162 µM), 0.615; with Etoposide + OSI-027 (first compound 0.1 µM), 0.382. Moreover, the relative viability is 0.613 with Etoposide + OSI-027 (first compound 0.3162 µM) and 0.429 with Etoposide + OSI-027 (first compound 1 µM).
